Measurements: PubChem BioAssay (NCI)
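Where inhibition never reached the appropriate level, the endpoint shown equals the highest concentration tested. Otherwise, values were interpolated linearly from a five-concentration, 48-hour dose response in 96-well plates. GI50 is the concentration that inhibits growth by half. TGI: concentration producing complete growth inhibition.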

Legend:
Assay in all cases: NCI-60 cell line screen, 48 h
786-0 renal = test system: 786-0 renal
A498 renal = test system: A498 renal
A549 NSCLC = test system: A549 NSCLC
ACHN renal = test system: ACHN renal
BT-549 breast = test system: BT-549 breast
CAKI-1 renal = test system: CAKI-1 renal
CCRF-CEM leukemia = test system: CCRF-CEM leukemia
COLO 205 colon = test system: COLO 205 colon
DU-145 prostate = test system: DU-145 prostate
EKVX NSCLC = test system: EKVX NSCLC
HCC-2998 colon = test system: HCC-2998 colon
HCT-116 colon = test system: HCT-116 colon
HCT-15 colon = test system: HCT-15 colon
HL-60(TB) leukemia = test system: HL-60(TB) leukemia
HOP-62 NSCLC = test system: HOP-62 NSCLC
HOP-92 NSCLC = test system: HOP-92 NSCLC
HS 578T breast = test system: HS 578T breast
HT29 colon = test system: HT29 colon
IGROV1 ovarian = test system: IGROV1 ovarian
K-562 leukemia = test system: K-562 leukemia
KM12 colon = test system: KM12 colon
LOX IMVI melanoma = test system: LOX IMVI melanoma
M14 melanoma = test system: M14 melanoma
MALME-3M melanoma = test system: MALME-3M melanoma
MCF7 breast = test system: MCF7 breast
MDA-MB-231 breast = test system: MDA-MB-231 breast
MDA-MB-435 = test system: MDA-MB-435
MOLT-4 leukemia = test system: MOLT-4 leukemia
NCI-H226 lung = test system: NCI-H226 lung
NCI-H23 lung = test system: NCI-H23 lung
NCI-H460 lung = test system: NCI-H460 lung
NCI-H522 lung = test system: NCI-H522 lung
NCI/ADR-RES ovarian = test system: NCI/ADR-RES ovarian
OVCAR-3 ovarian = test system: OVCAR-3 ovarian
OVCAR-4 ovarian = test system: OVCAR-4 ovarian
OVCAR-5 ovarian = test system: OVCAR-5 ovarian
OVCAR-8 ovarian = test system: OVCAR-8 ovarian
PC-3 prostate = test system: PC-3 prostate
RPMI-8226 leukemia = test system: RPMI-8226 leukemia
RXF 393 renal = test system: RXF 393 renal
SF-268 CNS = test system: SF-268 CNS
SF-295 CNS = test system: SF-295 CNS
SF-539 CNS = test system: SF-539 CNS
SK-MEL-2 melanoma = test system: SK-MEL-2 melanoma
SK-MEL-28 melanoma = test system: SK-MEL-28 melanoma
SK-MEL-5 melanoma = test system: SK-MEL-5 melanoma
SK-OV-3 ovarian = test system: SK-OV-3 ovarian
SN12C renal = test system: SN12C renal
SNB-19 CNS = test system: SNB-19 CNS
SNB-75 CNS = test system: SNB-75 CNS
SR leukemia = test system: SR leukemia
SW-620 colon = test system: SW-620 colon
T-47D breast = test system: T-47D breast
TK-10 renal = test system: TK-10 renal
U251 CNS = test system: U251 CNS
UACC-257 melanoma = test system: UACC-257 melanoma
UACC-62 melanoma = test system: UACC-62 melanoma
UO-31 renal = test system: UO-31 renal

`CCCCCCC1N=C(N)N=C(N)N1c1ccc(Cl)cc1` (stereo unspecified) was tested, and the GI50 (786-0 renal) was 4.63 µM, the TGI (786-0 renal) was 47.1 µM and the GI50 (A498 renal) was 7.05 µM. It also gave a TGI (A498 renal) of 24.8 µM, a GI50 (A549 NSCLC) of 4.83 µM and a TGI (A549 NSCLC) greater than 100 µM. For the same compound, the GI50 (ACHN renal) was greater than 100 µM, the TGI (ACHN renal) was greater than 100 µM and the GI50 (BT-549 breast) was 3.37 µM. The TGI (BT-549 breast) was 18.3 µM, the GI50 (CAKI-1 renal) was greater than 100 µM and the TGI (CAKI-1 renal) was greater than 100 µM. The GI50 (CCRF-CEM leukemia) was 4.67 µM, the TGI (CCRF-CEM leukemia) was 81.3 µM and the GI50 (COLO 205 colon) was 12.5 µM. It also gave a TGI (COLO 205 colon) of 26.7 µM, a GI50 (DU-145 prostate) of 12.1 µM and a TGI (DU-145 prostate) greater than 100 µM. It also gave a GI50 (EKVX NSCLC) of 8.7 µM, a TGI (EKVX NSCLC) of 45.4 µM and a GI50 (HCC-2998 colon) of 8.95 µM. It also gave a TGI (HCC-2998 colon) of 22 µM, a GI50 (HCT-116 colon) of 3.2 µM and a TGI (HCT-116 colon) of 15.8 µM. It also gave a GI50 (HCT-15 colon) greater than 100 µM, a TGI (HCT-15 colon) greater than 100 µM and a GI50 (HL-60(TB) leukemia) of 10.1 µM. It also gave a TGI (HL-60(TB) leukemia) of 28.3 µM, a GI50 (HOP-62 NSCLC) of 6.93 µM and a TGI (HOP-62 NSCLC) of 39.6 µM. For the same compound, the GI50 (HOP-92 NSCLC) was 2.62 µM, the TGI (HOP-92 NSCLC) was 22.1 µM and the GI50 (HS 578T breast) was 2.35 µM. The TGI (HS 578T breast) was 18.2 µM, the GI50 (HT29 colon) was 2.66 µM and the TGI (HT29 colon) was 16.8 µM. It also gave a GI50 (IGROV1 ovarian) of 3.53 µM, a TGI (IGROV1 ovarian) of 17.4 µM and a GI50 (K-562 leukemia) of 5.55 µM. For the same compound, the TGI (K-562 leukemia) was greater than 100 µM, the GI50 (KM12 colon) was 10.4 µM and the TGI (KM12 colon) was 22.9 µM. For the same compound, the GI50 (LOX IMVI melanoma) was 3.87 µM, the TGI (LOX IMVI melanoma) was 14.7 µM and the GI50 (M14 melanoma) was 3.04 µM. For the same compound, the TGI (M14 melanoma) was 23.5 µM, the GI50 (MALME-3M melanoma) was 2.1 µM and the TGI (MALME-3M melanoma) was 21 µM. The GI50 (MCF7 breast) was 11.4 µM, the TGI (MCF7 breast) was 25.6 µM and the GI50 (MDA-MB-231 breast) was 11.2 µM. It also gave a TGI (MDA-MB-231 breast) of 25.9 µM, a GI50 (MDA-MB-435) of 3.36 µM and a TGI (MDA-MB-435) of 17.5 µM. For the same compound, the GI50 (MOLT-4 leukemia) was 7.03 µM, the TGI (MOLT-4 leukemia) was 32.5 µM and the GI50 (NCI-H226 lung) was 13.2 µM. For the same compound, the TGI (NCI-H226 lung) was 54.2 µM, the GI50 (NCI-H23 lung) was 5.79 µM and the TGI (NCI-H23 lung) was 38 µM. The GI50 (NCI-H460 lung) was 4.69 µM, the TGI (NCI-H460 lung) was 18.5 µM and the GI50 (NCI-H522 lung) was 6.53 µM. For the same compound, the TGI (NCI-H522 lung) was 22.2 µM, the GI50 (NCI/ADR-RES ovarian) was greater than 100 µM and the TGI (NCI/ADR-RES ovarian) was greater than 100 µM. The GI50 (OVCAR-3 ovarian) was 12.2 µM, the TGI (OVCAR-3 ovarian) was 32.6 µM and the GI50 (OVCAR-4 ovarian) was 14.4 µM. It also gave a TGI (OVCAR-4 ovarian) of 60 µM, a GI50 (OVCAR-5 ovarian) of 10.7 µM and a TGI (OVCAR-5 ovarian) greater than 100 µM. It also gave a GI50 (OVCAR-8 ovarian) of 6.43 µM, a TGI (OVCAR-8 ovarian) greater than 100 µM and a GI50 (PC-3 prostate) of 2.9 µM. It also gave a TGI (PC-3 prostate) of 52.8 µM, a GI50 (RPMI-8226 leukemia) of 8.62 µM and a TGI (RPMI-8226 leukemia) of 30 µM. It also gave a GI50 (RXF 393 renal) of 10.6 µM, a TGI (RXF 393 renal) of 38.6 µM and a GI50 (SF-268 CNS) of 3.78 µM. It also gave a TGI (SF-268 CNS) of 21.7 µM, a GI50 (SF-295 CNS) of 2.58 µM and a TGI (SF-295 CNS) of 17.6 µM. The GI50 (SF-539 CNS) was 4.16 µM, the TGI (SF-539 CNS) was 18 µM and the GI50 (SK-MEL-2 melanoma) was 11.7 µM. The TGI (SK-MEL-2 melanoma) was 26.3 µM, the GI50 (SK-MEL-28 melanoma) was 8.66 µM and the TGI (SK-MEL-28 melanoma) was 21.8 µM. For the same compound, the GI50 (SK-MEL-5 melanoma) was 3.47 µM, the TGI (SK-MEL-5 melanoma) was 14.7 µM and the GI50 (SK-OV-3 ovarian) was 20.9 µM. For the same compound, the TGI (SK-OV-3 ovarian) was 63.1 µM, the GI50 (SN12C renal) was 3.76 µM and the TGI (SN12C renal) was 16.1 µM. For the same compound, the GI50 (SNB-19 CNS) was 8.62 µM, the TGI (SNB-19 CNS) was 24.9 µM and the GI50 (SNB-75 CNS) was 6.31 µM. It also gave a TGI (SNB-75 CNS) of 33.5 µM, a GI50 (SR leukemia) of 3 µM and a TGI (SR leukemia) of 11.9 µM. The GI50 (SW-620 colon) was 4.05 µM, the TGI (SW-620 colon) was 32.2 µM and the GI50 (T-47D breast) was 20 µM. It also gave a TGI (T-47D breast) of 70.5 µM, a GI50 (TK-10 renal) of 31.4 µM and a TGI (TK-10 renal) greater than 100 µM. The GI50 (U251 CNS) was 2.53 µM, the TGI (U251 CNS) was 14.7 µM and the GI50 (UACC-257 melanoma) was 13 µM. The TGI (UACC-257 melanoma) was 68.8 µM, the GI50 (UACC-62 melanoma) was 8.55 µM and the TGI (UACC-62 melanoma) was 37.6 µM. For the same compound, the GI50 (UO-31 renal) was 57.1 µM and the TGI (UO-31 renal) was greater than 100 µM.
